Laboratory results published in the NIST ThermoML archive (doi:10.1021/je400980w).
Numbers after ± are expanded uncertainties.

Conditions: Liquid

Structure (SMILES) | vapor or sublimation pressure (420.46 K) | vapor or sublimation pressure (431.49 K) | vapor or sublimation pressure (439.8 K) | vapor or sublimation pressure (420.74 K) | vapor or sublimation pressure (432.29 K) | vapor or sublimation pressure (440.15 K)
CCC(O)CO (stereo unspecified) [1,2-butanediol] | 20 ± 2 kPa | 30 ± 2 kPa | 40 ± 2 kPa |  |  | 
OCCO [1,2-ethanediol] |  |  |  | 20 ± 2 kPa | 30 ± 2 kPa | 40 ± 2 kPa
